Test results as given in ChEMBL document CHEMBL1201862, “PubChem BioAssay data set” (2004).
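Grown in 96-well plates, cells were treated for 48 hours with each compound at five concentrations. Insufficient inhibition: endpoint recorded as highest concentration tested. At the GI50, growth is halved.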 Activity calls are given as the source filed them. Cut-off read from the data, not from the text of the source: active = GI50 up to about 1.1 µM and inactive = higher.

Tests used:
Assay in all cases: NCI anticancer screen, dose series, 48 h
DU-145 = tested on: DU-145
Hs-578T = tested on: Hs-578T
MDA-N = tested on: MDA-N
MCF7 = tested on: MCF7
BT-549 = tested on: BT-549
M19-MEL = tested on: M19-MEL
XF498 = tested on: XF498
DMS-273 = tested on: DMS-273

Measured: GI50

CNc1ccc2c(c1)[C@@]1(C)c3ccccc3[C@@H](C2)N1C
inactive: DU-145 39.5 µM | Hs-578T 29.7 µM | MDA-N 24.4 µM | MCF7 29.7 µM | BT-549 17.6 µM

Cc1ccc(S(=O)(=O)NC(=O)NC(CCCCNC(=N)N)C(=O)O)cc1 (stereo not given)
inactive: DU-145 > 100 µM | Hs-578T > 100 µM | MDA-N > 100 µM | MCF7 > 100 µM | BT-549 > 100 µM

COc1ccc2c(OC)c3ccoc3nc2c1O
inactive: M19-MEL 54.8 µM | XF498 > 100 µM

S=C(Cc1ccc2c(c1)Sc1ccccc1O2)N1CCOCC1
inactive: DU-145 > 100 µM | Hs-578T 21.1 µM | MDA-N 42.7 µM | MCF7 36.7 µM

C(=C\Nc1ccc(Oc2ccccc2)cc1)/C=N/c1ccc(Oc2ccccc2)cc1
inactive: DU-145 20.1 µM | Hs-578T 19.9 µM | MDA-N 16.2 µM | MCF7 16.9 µM | BT-549 15.9 µM

O=P1(O)c2ccccc2CS(=O)(=O)Cc2ccccc21
inactive: DU-145 > 100 µM | Hs-578T > 100 µM | MDA-N > 100 µM | MCF7 > 100 µM | BT-549 > 100 µM

CC(C)(C)OC(=O)NC(Cc1ccc(OCc2ccccc2)cc1)C(=O)NC(COCc1ccccc1)C(=O)Oc1c(Cl)c(Cl)c(Cl)c(Cl)c1Cl (stereo not given)
inactive: DU-145 14.8 µM | Hs-578T 17.7 µM | MDA-N 26.4 µM | MCF7 22.4 µM | BT-549 20 µM

CCCCc1c2cnccc2c(CCCC)c2c1[nH]c1ccccc12
inactive: DMS-273 10.7 µM | M19-MEL 12.4 µM | XF498 5.19 µM

COc1ccc(-c2csc3c2[N+]2(C)C=CC=C2C3N2CCCC2)cc1 (stereo not given)
inactive: Hs-578T 15.7 µM | MDA-N 7.6 µM | MCF7 29 µM | BT-549 8.2 µM

C=C1CCC2[C@@H](CCC3[C@]2(C)CCC[C@]3(C)C(=O)OC)C1CCO (stereo not given in full)
inactive: DMS-273 10.5 µM | M19-MEL 15 µM | XF498 10.2 µM

C=Cc1cnc([N+](=O)[O-])n1C
inactive: DU-145 37.1 µM | Hs-578T 35.7 µM | MDA-N 40 µM | MCF7 59 µM | BT-549 46.3 µM

O=C(O)C1(Cc2ccc3c(c2)CCC3)Cc2cc3c(cc2C1)CCC3
inactive: DU-145 > 100 µM | Hs-578T > 100 µM | MDA-N > 100 µM | MCF7 > 100 µM | BT-549 > 100 µM

C(=C/c1nc2ccccc2o1)/c1ccc2c(c1)OCO2
inactive: DMS-273 4.56 µM | MCF7 14.5 µM | M19-MEL 21.2 µM | XF498 20.5 µM

CCCCCCCCCCCC(=O)OCC(C[As](=O)(O)O)OC(=O)CCCCCCCCCCC (stereo not given)
inactive: DU-145 17.5 µM | Hs-578T 4.2 µM | DMS-273 2.47 µM | MDA-N 4.48 µM | MCF7 3.93 µM | BT-549 7.1 µM | M19-MEL 4.25 µM | XF498 2.9 µM

CCCCCCCC(=O)OCC1OC(n2cc(F)c(=O)[nH]c2=O)C(NC(=O)OCc2ccccc2)C(OC(=O)CCCCCCC)C1O (stereo not given)
inactive: DMS-273 15.3 µM | M19-MEL 23.6 µM

O=CNCNCCO
inactive: DU-145 > 100 µM | Hs-578T > 100 µM | MCF7 > 100 µM | BT-549 > 100 µM

CC(C)C(=O)/C=C/c1ccc(Br)cc1
inactive: DMS-273 12.9 µM | M19-MEL 15.4 µM | XF498 16.8 µM

COc1ccc(OCC(C)(C)O)cc1
inactive: DMS-273 > 100 µM | MCF7 > 45.3 µM | XF498 > 100 µM

CCN(CCO)C(=O)C1(c2ccccc2)CCCCC1
inactive: DU-145 > 10 µM | Hs-578T > 10 µM | MCF7 > 10 µM

CS(=O)(=O)c1n[nH]c2nc(O)nc(O)c12
inactive: DU-145 > 10 µM | Hs-578T > 10 µM | MDA-N > 10 µM | MCF7 > 10 µM | BT-549 > 10 µM

CC(=O)/C=C1\CC(=O)N(C)c2ccccc2N1
inactive: DMS-273 > 100 µM | M19-MEL > 100 µM | XF498 > 100 µM

CN(C)Cc1cc(/N=N/c2ccc(Cl)cc2)ccc1OC(=O)c1ccccc1
inactive: DU-145 17 µM | Hs-578T 16.4 µM | MDA-N 16.5 µM | MCF7 13.2 µM | BT-549 22.1 µM

CCCOC1OC(CS(=O)(=O)O)C(O)C(O)C1O (stereo not given)
inactive: DU-145 > 100 µM | Hs-578T > 100 µM | MDA-N > 100 µM | MCF7 > 100 µM | BT-549 > 100 µM

CCCc1cc(=O)oc2c3c(c4c(c12)OC(C)(C)CC4)O[C@@H](C)[C@H](C)[C@H]3O
inactive: DU-145 17.8 µM | Hs-578T 15.8 µM | MDA-N 2.69 µM | MCF7 12.6 µM | BT-549 5.06 µM

CCOC(=O)c1cn2c(n1)sc1cc([N+](=O)[O-])ccc12
inactive: DU-145 > 100 µM | Hs-578T > 100 µM | MCF7 > 100 µM | BT-549 74.6 µM

COC(=O)Cc1c([C@H]2[C@H](CC(=O)OC)c3ccccc3N2C(=O)C(F)(F)F)[nH]c2ccccc12
inactive: DU-145 63 µM | Hs-578T 22.8 µM | MDA-N 32.3 µM | MCF7 26 µM | BT-549 27.6 µM
